Legend:
[1] = human gut metagenome, 24 h, 2 µM
[2] = The drug is tested on Z-012 corresponding to metagenome with ENA study accession number: PRJEB37062 and ENA sample accession number: ERS12561812 for biotransformation under anaerobic condition. The drug concentrations were measured over 9 timepoints collected between 0 and 24 hours of incubation by liquid-chromatography-coupled mass spectrometry (LC–MS); conditions: 2 µM
[3] = human gut metagenome, 24 h, 2 µM; remark: listed apart in the source
[4] = human gut metagenome, 24 h, 2 µM; remark: listed apart in the source
[5] = The drug is tested on WLS-170 corresponding to human gut metagenome with ENA study accession number: PRJEB37062 and ENA sample accession number: ERS12561762 for biotransformation under anaerobic condition. The drug concentrations were measured over 9 timepoints collected between 0 and 24 hours of incubation by liquid-chromatography-coupled mass spectrometry (LC–MS); conditions: 2 µM
[6] = human gut metagenome, 24 h, 2 µM; remark: listed apart in the source
[7] = The drug is tested on Z-024 corresponding to pig gut metagenome with ENA study accession number: PRJEB37062 and ENA sample accession number: ERS12561823 for biotransformation under anaerobic condition. The drug concentrations were measured over 9 timepoints collected between 0 and 24 hours of incubation by liquid-chromatography-coupled mass spectrometry (LC–MS); conditions: 2 µM
[8] = The drug is tested on Z-006 corresponding to mouse gut metagenome with ENA study accession number: PRJEB37062 and ENA sample accession number: ERS12561806 for biotransformation under anaerobic condition. The drug concentrations were measured over 9 timepoints collected between 0 and 24 hours of incubation by liquid-chromatography-coupled mass spectrometry (LC–MS); conditions: 2 µM
[9] = The drug is tested on Z-002 corresponding to rabbit gut metagenome with ENA study accession number: PRJEB37062 and ENA sample accession number: ERS12561802 for biotransformation under anaerobic condition. The drug concentrations were measured over 9 timepoints collected between 0 and 24 hours of incubation by liquid-chromatography-coupled mass spectrometry (LC–MS); conditions: 2 µM
Note: call rule not given here.

Row | Compound | Bacterial Biotransformation [1] | Bacterial Biotransformation [2] | Bacterial Biotransformation [3] | Bacterial Biotransformation [4] | Bacterial Biotransformation [5] | Bacterial Biotransformation [6] | Bacterial Biotransformation [7] | Bacterial Biotransformation [8] | Bacterial Biotransformation [9]
1 | O=C1C(CC[S+]([O-])c2ccccc2)C(=O)N(c2ccccc2)N1c1ccccc1 (centres undefined) [SULFINPYRAZONE] | Compound metabolized | Compound NOT metabolized | Compound metabolized | Compound metabolized | Compound metabolized | Compound metabolized | Compound metabolized | Compound NOT metabolized | Compound metabolized
2 | CCOc1ccccc1OCCN[C@H](C)Cc1ccc(OC)c(S(N)(=O)=O)c1.Cl [TAMSULOSIN HYDROCHLORIDE] | Compound NOT metabolized | Compound NOT metabolized | Compound metabolized | Compound NOT metabolized | Compound metabolized | Compound NOT metabolized | Compound NOT metabolized | Compound NOT metabolized | Compound metabolized
3 | COc1cc2nc(N3CCN(C(=O)C4CCCO4)CC3)nc(N)c2cc1OC (centres undefined) [TERAZOSIN] | Compound NOT metabolized | Compound NOT metabolized | Compound metabolized | Compound NOT metabolized | Compound NOT metabolized | Compound NOT metabolized | Compound NOT metabolized | Compound NOT metabolized | Compound NOT metabolized
4 | c1ccc2[nH]c(-c3cscn3)nc2c1 [THIABENDAZOLE] | Compound NOT metabolized | Compound NOT metabolized | Compound metabolized | Compound NOT metabolized | Compound NOT metabolized | Compound NOT metabolized | Compound NOT metabolized | Compound NOT metabolized | Compound NOT metabolized
5 | CCN(CC)CCNC(=O)c1cc(S(C)(=O)=O)ccc1OC [TIAPRIDE] | Compound NOT metabolized | Compound NOT metabolized | Compound metabolized | Compound NOT metabolized | Compound NOT metabolized | Compound NOT metabolized | Compound NOT metabolized | Compound NOT metabolized | Compound metabolized
6 | CC(C)(C)NC[C@H](O)COc1nsnc1N1CCOCC1.O=C(O)/C=C\C(=O)O [TIMOLOL MALEATE] | Compound NOT metabolized | Compound NOT metabolized | Compound NOT metabolized | Compound NOT metabolized | Compound NOT metabolized | Compound NOT metabolized | Compound NOT metabolized | Compound NOT metabolized | Compound NOT metabolized
7 | CC[C@@]1(O)C(=O)OCc2c1cc1n(c2=O)Cc2cc3c(CN(C)C)c(O)ccc3nc2-1 [TOPOTECAN] | Compound NOT metabolized | Compound NOT metabolized | Compound NOT metabolized | Compound NOT metabolized | Compound NOT metabolized | Compound NOT metabolized | Compound NOT metabolized | Compound NOT metabolized | Compound NOT metabolized
8 | COc1cc(C(=O)NCc2ccc(OCCN(C)C)cc2)cc(OC)c1OC [TRIMETHOBENZAMIDE] | Compound NOT metabolized | Compound NOT metabolized | Compound NOT metabolized | Compound NOT metabolized | Compound NOT metabolized | Compound NOT metabolized | Compound NOT metabolized | Compound NOT metabolized | Compound NOT metabolized
9 | COc1ccc(C(CN(C)C)C2(O)CCCCC2)cc1 (centres undefined) [VENLAFAXINE] | Compound NOT metabolized | Compound NOT metabolized | Compound metabolized | Compound NOT metabolized | Compound NOT metabolized | Compound NOT metabolized | Compound NOT metabolized | Compound NOT metabolized | Compound NOT metabolized
10 | CCOC(=O)C1=C[C@]2(CC)CCCN3CCc4c(n1c1ccccc41)[C@@H]32 [VINPOCETINE] | Compound metabolized | Compound NOT metabolized | Compound metabolized | Compound metabolized | Compound metabolized | Compound metabolized | Compound metabolized | Compound NOT metabolized | Compound metabolized
11 | CCN(C(C)=O)c1cccc(-c2ccnc3c(C#N)cnn23)c1 [ZALEPLON] | Compound metabolized | Compound metabolized | Compound metabolized | Compound metabolized | Compound metabolized | Compound metabolized | Compound NOT metabolized | Compound NOT metabolized | Compound metabolized

From ChEMBL document CHEMBL5724914, “Linking interpersonal differences in gut microbiota composition and drug biotransformation activity” (2024)
